Assay results reported in BindingDB's records for patent US20240300941 (Zhuhai Yufan Biotechnologies, 2024).

Target: Mitogen-activated protein kinase kinase kinase kinase 1 (Homo sapiens, UniProt Q92918)
Experiment: HPK1 ADP-Glo Enzyme Assay
Description: The buffer used in the enzyme assay contains 5 mM MOPS (pH=7.2), 2.5 mM β-Glycerol Phosphate, 0.4 mM EDTA, 1 mM EGTA, 0.05 mM DTT, 5 mM MgCl2. The compound was dissolved in 100% DMSO at the concentration was 10 mM. The initial concentration of the test was 5 uM, and ten data points were diluted by three-fold gradient, and each point was repeatedly measured twice. The HPK1 protein was purchased from Thermo (Cat. No. PV6355) and diluted to 2× stock solution at the concentration of 10 nM (the final concentration of the enzyme assay was 5 nM). 2.5 µl of 2×HPK1 protein was added to each well of the plate containing the test compound, centrifuged at 1000 rpm for 30 seconds, and then incubated at 25° C. for 15 minutes. MBP protein was purchased from Millipore (Cat. No. 13-110) and ATP was purchased from Sigma (Cat. No. A7699-5G) and the two were formulated into 2× working solutions at concentrations of 4 uM and 80 uM. Added 2.5 μl mixture of 2×MBP and ATP, centrifuged at 1000 rpm for 30 seconds, then incubated at 25° C. for 90 minutes. Then added 5 ul of ADP-Glo (Promega, Cat. No. V9102) to the assay plate and incubated […] at 25° C. for 60 minutes. Finally, 10 ul of the kinase assay reagent (Promega, Cat. No. V9102) was added to the assay plate, centrifuged at 1000 rpm for 30 seconds at 25° C. for 60 minutes, and the […] was determined.

Chain of Mitogen-activated protein kinase kinase kinase kinase 1 (Q92918 whole entry): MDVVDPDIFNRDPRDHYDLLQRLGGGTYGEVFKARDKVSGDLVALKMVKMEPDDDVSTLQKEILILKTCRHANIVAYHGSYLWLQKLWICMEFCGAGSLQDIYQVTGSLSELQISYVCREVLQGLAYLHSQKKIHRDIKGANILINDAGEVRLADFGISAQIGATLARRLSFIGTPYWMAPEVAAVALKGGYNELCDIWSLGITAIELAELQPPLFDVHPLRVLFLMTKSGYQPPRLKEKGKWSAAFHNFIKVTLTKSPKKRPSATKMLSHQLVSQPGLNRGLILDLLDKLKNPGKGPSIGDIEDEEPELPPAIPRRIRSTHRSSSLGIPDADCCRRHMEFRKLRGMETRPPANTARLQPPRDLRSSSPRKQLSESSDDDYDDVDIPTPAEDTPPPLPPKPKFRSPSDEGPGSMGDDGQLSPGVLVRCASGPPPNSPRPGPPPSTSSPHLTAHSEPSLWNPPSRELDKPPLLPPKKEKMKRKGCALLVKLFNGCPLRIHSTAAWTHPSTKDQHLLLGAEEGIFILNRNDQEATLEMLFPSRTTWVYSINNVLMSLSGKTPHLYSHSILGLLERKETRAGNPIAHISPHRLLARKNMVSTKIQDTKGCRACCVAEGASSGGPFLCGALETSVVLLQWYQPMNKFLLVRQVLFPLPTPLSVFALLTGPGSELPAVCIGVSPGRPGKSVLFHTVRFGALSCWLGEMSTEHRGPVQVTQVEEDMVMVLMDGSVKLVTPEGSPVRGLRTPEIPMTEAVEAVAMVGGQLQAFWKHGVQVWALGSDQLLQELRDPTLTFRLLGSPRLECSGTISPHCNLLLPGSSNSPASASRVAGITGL

IC50 [nM]	Structure (SMILES)
< 100	CN1CCC(c2ncc(-c3cnc(N)c(OCc4cccc(C#CC(C)(C)O)c4)c3)s2)CC1 [US20240300941, Compound A3]
< 100	CN1CCC(c2ncc(-c3cnc(N)c(OCc4ccnc(C#CC(C)(C)O)c4)c3)s2)CC1 [US20240300941, Compound A10]
< 100	CN1CCC(c2ncc(-c3cnc(N)c(OCc4cccc(C#CC5(O)CCCC5)c4)c3)s2)CC1 [US20240300941, Compound A34]
> 1000	CN1CCC(c2ncc(-c3cnc(N)c(OCc4cccc(C#CC5(O)CCCCC5)c4)c3)s2)CC1 [US20240300941, Compound A38]
< 100	CN1CCC(c2ncc(-c3cnc(N)c(OCc4cccc(C#CC5(O)CCC5)c4)c3)s2)CC1 [US20240300941, Compound A40]
< 100	CC(C)(O)C#Cc1cccc(COc2cc(-c3cnc(C4CCNCC4)s3)cnc2N)c1 [US20240300941, Compound A42]
100 to 1000	Cc1nc(C2CCN(C)CC2)sc1-c1cnc(N)c(OCc2cccc(C#CC(C)(C)O)c2)c1 [US20240300941, Compound A62]

Further lines, the molecule ahead of its results:

Structure (SMILES)	IC50 [nM]
CN1CCC(c2ncc(-c3cnc(N)c(OC(C)(C)c4ccncc4)c3)s2)CC1 [US20240300941, Compound A6]	> 1000
Nc1ncc(-c2cnc(C3CCNCC3)s2)cc1OCc1ccncc1 [US20240300941, Compound A7]	< 100
CN1CCC(c2ncc(-c3cnc(N)c(OCc4ccnc(Cl)c4)c3)s2)CC1 [US20240300941, Compound A8]	< 100
COc1ccc(COc2cc(-c3cnc(C4CCN(C)CC4)s3)cnc2N)cc1 [US20240300941, Compound A9]	> 1000
CN1CCN(c2ncc(-c3cnc(N)c(OCc4ccncc4)c3)s2)CC1 [US20240300941, Compound A12]	< 100
Nc1ncc(-c2cnc(C3CCOCC3)s2)cc1OCc1ccncc1 [US20240300941, Compound A13]	< 100
CN1CCC(n2cc(-c3cnc(N)c(OCc4ccncc4)n3)c(N)n2)CC1 [US20240300941, Compound A14]	100 to 1000
CC(C)c1ncc(-c2cnc(N)c(OCc3ccncc3)c2)s1 [US20240300941, Compound A36]	< 100
Nc1ncc(-c2cnc(C3CCCCC3)s2)cc1OCc1ccncc1 [US20240300941, Compound A37]	< 100
CC(C)c1ncc(-c2cnc(N)c(OCc3cccc(C#CC(C)(C)O)c3)c2)s1 [US20240300941, Compound A41]	< 100
